Where a name gives a salt, the structure may show the parent alone.
Key:
Human 5-HT4(d) = biological target: T1, Human 5-HT4(d) (Homo sapiens, UniProt Q13639); assay: Agonist-induced cAMP elevation in human 5-HT4(d) transfected HEK293 cells; assay type: cell-based; conditions: for Emax: HEK293, cAMP production normalized to the amount produced by 1,000 nM serotonin; for EC50: cAMP elevation (HTRF), human 5-HT4(d) transfected HEK293 cells
T1 construct: expressed in transfected cells
Method: Human 5-HT4(d) transfected HEK293 cells were established in-house. The cells were grown at 37° C. and 5% CO2 in DMEM supplemented with 10% FCS, 20 mM HEPES (pH 7.4), 200 μg/ml hygromycin B (Gibco), 100 units/ml penicillin and 100 μg/ml streptomycin.
The cells were grown to 60-80% confluence. On the previous day before treatment with compounds dialyzed FCS (Gibco) was substituted for normal and the cells were incubated overnight.
Compounds were prepared in 96-well plates (12.5 μl/well). The cells were harvested with PBS/1 mM EDTA, centrifuged and washed with PBS. At the beginning of the assay, cell pellet was resuspended in DMEM supplemented with 20 mM HEPES, 10 μM pargyline (Sigma) and 1 mM 3-isobutyl-1-methylxanthine (Sigma) at the concentration of 1.6×10^5 cells/ml and left for 15 min at room temperature. The reaction was initiated by addition of the cells into plates (12.5 μl/well). After incubation for 15 min at room temperature, 1% Triton X-100 was added to stop the reaction (25 μl/well) and the plates were left for 30 minutes at room temperature. Homogenous time-resolved fluorescence-based cAMP (Schering) detection was made according to the manufacturer's instruction. ARVOsx multilabel counter (Wallac) was used to measure HTRF (excitation 320 nm, emission 665 nm/620 nm, delay time 50 μs, window time 400 μs).
Data was analyzed based on the ratio of fluorescence intensity of each well at 620 nm and 665 nm followed by cAMP quantification using cAMP standard curve. Enhancement of cAMP production elicited by each compound was normalized to the amount of cAMP produced by 1,000 nM serotonin (Sigma).

T1 sequence (Q13639 1-360 isoform Q13639-3): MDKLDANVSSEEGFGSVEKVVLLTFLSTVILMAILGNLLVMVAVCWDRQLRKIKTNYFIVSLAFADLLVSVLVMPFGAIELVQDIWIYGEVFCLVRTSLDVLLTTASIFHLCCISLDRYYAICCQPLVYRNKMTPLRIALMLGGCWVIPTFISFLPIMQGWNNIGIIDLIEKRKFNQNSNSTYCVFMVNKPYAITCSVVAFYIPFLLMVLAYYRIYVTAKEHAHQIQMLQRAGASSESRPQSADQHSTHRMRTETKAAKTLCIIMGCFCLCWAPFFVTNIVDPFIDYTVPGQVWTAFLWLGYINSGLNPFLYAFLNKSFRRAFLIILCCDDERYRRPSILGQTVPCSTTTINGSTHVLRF

## O[C@H]1CCC[C@@H]1Oc1cccc2onc(OCC3CCN(CC4(O)CCOCC4)CC3)c12 (relative stereo) [Example 32, 4-({4-[({4-[(trans-2-Hydroxycyclopentyl)oxy]-1,2-benzisoxazol-3-yl}oxy)methyl]piperidin-1-yl}-methyl)tetrahydro-2H-pyran-4-ol]
Human 5-HT4(d)
  Emax: 40%
  EC50: 1.6 nM

## O=C(O)C1(CN2CCC(COc3noc4cccc(O[C@H]5CCC[C@@H]5O)c34)CC2)CCCC1 (relative stereo) [Example 33, 1-({4-[({4-[(trans-2-Hydroxycyclopentyl)oxy]-1,2-benzisoxazol-3-yl}oxy)methyl]piperidin-1-yl}methyl)cyclopentanecarboxylic acid]
Human 5-HT4(d)
  Emax: 51%
  EC50: 3.3 nM

## O=C(O)C1(CN2CCC(COc3noc4cccc(O[C@H]5CCC[C@@H]5O)c34)CC2)CCC1 (relative stereo) [Example 34, 1-({4-[({4-[(trans-2-Hydroxycyclopentyl)oxy]-1,2-benzisoxazol-3-yl}oxy)methyl]piperidin-1-yl}-methyl)cyclobutanecarboxylic acid]
Human 5-HT4(d)
  Emax: 46%
  EC50: 2.7 nM

## CO[C@H]1CCC[C@@H]1Oc1cccc2onc(OCC3CCN(CC4(O)CCOCC4)CC3)c12 (relative stereo) [Example 35, 4-({4-[({4-[(trans-2-Methoxycyclopentyl)oxy]-1,2-benzisoxazol-3-yl}oxy)methyl]piperidin-1-yl}-methyl)tetrahydro-2H-pyran-4-ol and its 4-methylbenzenesulfonate]
Human 5-HT4(d)
  Emax: 56%
  EC50: 1.4 nM

## O[C@@H]1CCC[C@@H]1Oc1cccc2onc(OCC3CCN(CC4(O)CCOCC4)CC3)c12 (relative stereo) [Example 36, 4-({4-[({4-[(cis-2-Hydroxycyclopentyl)oxy]-1,2-benzisoxazol-3-yl}oxy)methyl]piperidin-1-yl}methyl)-tetrahydro-2H-pyran-4-ol]
other
  melting point: 140.8 °C
Human 5-HT4(d)
  Emax: 52%
  EC50: 1.9 nM

## CO[C@@H]1CCC[C@@H]1Oc1cccc2onc(OCC3CCN(CC4(O)CCOCC4)CC3)c12 (relative stereo) [Example 37, 4-({4-[({4-[(cis-2-Methoxycyclopentyl)oxy]-1,2-benzisoxazol-3-yl}oxy)methyl]piperidin-1-yl}methyl)-tetrahydro-2H-pyran-4-ol and its oxalate salt]
Human 5-HT4(d)
  Emax: 50%
  EC50: 8.8 nM

## O[C@H]1CC[C@H](Oc2cccc3onc(OCC4CCN(CC5(O)CCOCC5)CC4)c23)C1 (relative stereo) [Example 39, 4-({4-[({4-[(trans-3-Hydroxycyclopentyl)oxy]-1,2-benzisoxazol-3-yl}oxy)methyl]piperidin-1-yl}methyl)tetrahydro-2H-pyran-4-ol]
Human 5-HT4(d)
  Emax: 56%
  EC50: 1.3 nM

## O[C@H]1CCCC[C@H]1Oc1cccc2onc(OCC3CCN(CC4(O)CCOCC4)CC3)c12 (relative stereo) [Example 40, 4-({4-[({4-[(cis-2-Hydroxycyclohexyloxyl)oxy]-1,2-benzisoxazol-3-yl]oxy)methyl}piperidin-1-yl}-methyl)tetrahydro-2H-pyran-4-ol]
other
  melting point: 125.2 °C
Human 5-HT4(d)
  Emax: 42%
  EC50: 16 nM

## O=C(O)C1(CN2CCC(COc3noc4cccc(OCC(F)(F)F)c34)CC2)CCOCC1 [Example 1, 4-{[4-({[4-(2,2,2-Trifluoroethoxy)-1,2-benzisoxazol-3-yl]oxy}methyl)piperidin-1-yl]methyl}tetrahydro-2H-pyran-4-carboxylic acid]
Human 5-HT4(d)
  Emax: 69%
  EC50: 1.5 nM

## O=C(O)C1(CN2CCC(COc3noc4cccc(OCC(F)(F)F)c34)CC2)CCC1 [Example 2, 1-{[4-({[4-(2,2,2-Trifluoroethoxy)-1,2-benzisoxazol-3-yl]oxy}methyl)piperidin-1-yl]methyl}-cyclobutanecarboxylic acid]
other
  melting point: 164.9 °C
Human 5-HT4(d)
  Emax: 47%
  EC50: 0.51 nM

## CC(C)(CN1CCC(COc2noc3cccc(OCC(F)(F)F)c23)CC1)C(=O)O [Example 3, 2,2-Dimethyl-3-[4-({[4-(2,2,2-trifluoroethoxy)-1,2-benzisoxazol-3-yl]oxy}methyl)-piperidin-1-yl]propanoic acid]
other
  melting point: 129.2 °C
Human 5-HT4(d)
  Emax: 34%
  EC50: 0.69 nM

## O=C(O)[C@H]1CC[C@H](CN2CCC(COc3noc4cccc(OCC(F)(F)F)c34)CC2)CC1 [Example 4, trans-4-{[4-({[4-(2,2,2-Trifluoroethoxy)-1,2-benzisoxazol-3-yl]oxy}methyl)-piperidin-1-yl]methyl}cyclohexanecarboxylic acid]
other
  melting point: 158 °C
Human 5-HT4(d)
  Emax: 77%
  EC50: 1.2 nM

## O=C(O)C1(CCN2CCC(COc3noc4cccc(OCC(F)(F)F)c34)CC2)CCOCC1 [Example 5, 4-{2-[4-({[4-(2,2,2-Trifluoroethoxy)-1,2-benzisoxazol-3-yl]oxy}methyl)piperidin-1-yl]ethyl}tetrahydro-2H-pyran-4-carboxylic acid]
other
  melting point: 220.5 °C
Human 5-HT4(d)
  Emax: 70%
  EC50: 2.7 nM

## O=C(O)C(F)(F)CN1CCC(COc2noc3cccc(OCC(F)(F)F)c23)CC1 [Example 6, 2,2-Difluoro-3-[4-({[4-(2,2,2-trifluoroethoxy)-1,2-benzisoxazol-3-yl]oxy}methyl)-piperidin-1-yl]propanoic acid]
other
  melting point: 227.1 °C
Human 5-HT4(d)
  Emax: 30%
  EC50: 20 nM

## CC(C)COc1cccc2onc(OCC3CCN(CC4(O)CCOCC4)CC3)c12 [Example 8, 1-[(4-Hydroxytetrahydro-2H-pyran-4-yl)methyl]-4-{[(4-isobutoxy-1,2-benzisoxazol-3-yl)oxy]methyl}-piperidinium and its p-toluenesulfonate salt]
Human 5-HT4(d)
  Emax: 39%
  EC50: 2.6 nM

## O=C(O)C1(CCN2CCC(COc3noc4cccc(OC5CCCC5)c34)CC2)CCOCC1 [Example 25, 4-{2-[4-({[4-(Cyclopentyloxy)-1,2-benzisoxazol-3-yl]oxy}methyl)piperidin-1-yl]ethyl}tetrahydro-2H-Pyran-4-carboxylic acid]
Human 5-HT4(d)
  Emax: 41%
  EC50: 3 nM

## O=C(O)C1(CN2CCC(COc3noc4cccc(OC5CCOCC5)c34)CC2)CCOCC1 [Example 27, 4-{[4-({[4-(Tetrahydro-2H-pyran-4-yloxy)-1,2-benzisoxazol-3-yl]oxy}methyl)piperidin-1-yl]methyl}-tetrahydro-2H-pyran-4-carboxylic acid]
Human 5-HT4(d)
  Emax: 71%
  EC50: 11 nM

## OC1(CN2CCC(COc3noc4cccc(O[C@H]5CC[C@H](O)CC5)c34)CC2)CCOCC1 [Example 41, 4-({4-[({4-[(trans-4-Hydroxycyclohexyl)oxy]-1,2-benzisoxazol-3-yl}oxy)methyl]piperidin-1-yl}-methyl)tetrahydro-2H-pyran-4-ol]
Human 5-HT4(d)
  Emax: 44%
  EC50: 3 nM

## O=C(O)C1(CN2CCC(COc3noc4cccc(O[C@H]5CC[C@H](O)CC5)c34)CC2)CCOCC1 [Example 42, 4-({4-[({4-[(trans-4-Hydroxycyclohexyl)oxy]-1,2-benzisoxazol-3-yl}oxy)methyl]piperidin-1-yl}-methyl)tetrahydro-2H-pyran-4-carboxylic acid]
Human 5-HT4(d)
  Emax: 67%
  EC50: 18 nM

## O=C(O)C1(CN2CCC(COc3noc4cccc(O[C@H]5CC[C@@H](O)CC5)c34)CC2)CCOCC1 [Example 43, 4-({4-[({4-[(cis-4-Hydroxycyclohexyl)oxy]-1,2-benzisoxazol-3-yl}oxy)methyl]piperidin-1-yl}methyl)-tetrahydro-2H-pyran-4-carboxylic acid]
Human 5-HT4(d)
  Emax: 49%
  EC50: 3.3 nM

## O=C(O)[C@H]1CC[C@H](CN2CCC(COc3noc4cccc(O[C@H]5CC[C@@H](CO)CC5)c34)CC2)CC1 [Example 47, trans-4-[(4-{[(4-{[cis-4-(Hydroxymethyl)cyclohexyl]oxy}-1,2-benzisoxazol-3-yl)oxy]methyl}-Piperidin-1-yl)methyl]cyclohexanecarboxylic acid]
Human 5-HT4(d)
  Emax: 71%
  EC50: 5.3 nM

## O=C(O)C1(CN2CCC(COc3noc4cccc(OCC5(CO)CCC5)c34)CC2)CCOCC1 [Example 49, 4-[(4-{[(4-{[1-(Hydroxymethyl)cyclobutyl]methoxy}-1,2-benzisoxazol-3-VI)oxy]methyl}piperidin-1-yl)methyl]tetrahydro-2H-pyran-4-carboxylic acid]
Human 5-HT4(d)
  Emax: 40%
  EC50: 65 nM

## O=C(O)C1(CN2CCC(COc3noc4cccc(OCC5(CO)CCCC5)c34)CC2)CCOCC1 [Example 51, 4-[(4-{[(4-{[1-(Hydroxymethyl)cyclopentyl]methoxy}-1,2-benzisoxazole-3-yl)oxy]methyl}piperidin-1-yl)methyl]tetrahydro-2H-pyran-4-carboxylic acid]
Human 5-HT4(d)
  Emax: 33%
  EC50: 27 nM

## O=C(O)C1(CN2CCC(COc3noc4cccc(OCC5(CO)CCCC5)c34)CC2)CCC1 [Example 52, 1-[(4-{[(4-{[1-(Hydroxymethyl)cyclopentyl]methoxy}-1,2-benzisoxazol-3-yl)oxy]methyl}piperidin-1-yl)methyl]cyclobutanecarboxylic acid]
Human 5-HT4(d)
  Emax: 41%
  EC50: 30 nM

— US8816090B2, “Benzisoxazole derivatives” (Pfizer Inc., priority 2005, dated 2014)
